These results are taken from patent publication US12281102B2, “Inhibitors of APOL1 and methods of using same” (Vertex Pharmaceuticals Incorporated, priority 2020, dated 2025).

In this assay the target is T1, G1 APOL1 (Homo sapiens, UniProt O14791, I384M/S342G).
T1 construct: expressed in transfected cells
T1 sequence (O14791 28-398 S342G/I384M): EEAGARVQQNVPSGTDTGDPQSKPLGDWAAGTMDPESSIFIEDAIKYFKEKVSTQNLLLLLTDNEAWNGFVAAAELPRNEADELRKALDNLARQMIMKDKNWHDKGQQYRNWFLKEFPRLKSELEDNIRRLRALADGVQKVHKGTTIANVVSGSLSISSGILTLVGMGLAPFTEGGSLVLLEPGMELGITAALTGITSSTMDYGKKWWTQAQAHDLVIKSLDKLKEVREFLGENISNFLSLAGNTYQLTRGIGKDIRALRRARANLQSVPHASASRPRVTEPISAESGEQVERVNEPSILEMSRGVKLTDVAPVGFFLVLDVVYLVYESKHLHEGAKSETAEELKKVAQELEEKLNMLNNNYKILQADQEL
Nature of the assay: Acute APOL1 Thallium Assay with inducible stable clones of HEK 293 cells. The assay is classed as cell-based. Conditions: HEK 293 T-Rex inducible stable clone expressing G1 APOL1; read-out: Thallium Assay (IC50). An outline of the steps: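 APOL1 pore function was measured as thallium influx, detected by a Tl+-sensitive fluorescent dye loaded as AM ester, on a FLIPR Tetra after Tl+ addition. Cells were HEK T-Rex G1 APOL1 clone DC3.25, 26,000 per well, induced with tetracycline at plating in Opti-MEM assay medium.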
The IC50 is the concentration that inhibits the measured activity by half. On to `O=S(=O)(NC[C@H]1C[C@H](c2c(-c3ccc(F)cc3)[nH]c3c(F)cc(F)cc32)C1)N[C@@H]1CCC[C@H]1O` [Compound 348], for which the IC50 was over 1000 nM.

Regarding `NC(=O)C1(NS(=O)(=O)NC[C@H]2C[C@H](c3c(-c4ccc(F)cc4)[nH]c4c(F)cc(F)cc43)C2)CC1` [Compound 349], the IC50 was over 1000 nM.

In the case of `O=S(=O)(NC[C@H](O)CO)NC[C@H]1C[C@H](c2c(-c3ccc(F)cc3)[nH]c3c(F)cc(F)cc32)C1` [Compound 350], the IC50 is over 1000 nM.

As to `C[C@@H](O)CNS(=O)(=O)NC[C@H]1C[C@H](c2c(-c3ccc(F)cc3)[nH]c3c(F)cc(F)cc32)C1` [Compound 351], the IC50 was over 1000 nM.

In the case of `O=S(=O)(NC[C@@H](O)CO)NC[C@H]1C[C@H](c2c(-c3ccc(F)cc3)[nH]c3c(F)cc(F)cc32)C1` [Compound 352], the IC50 was over 1000 nM.

For `NC(=O)[C@H](CO)NS(=O)(=O)NC[C@H]1C[C@H](c2c(-c3ccc(F)cc3)[nH]c3c(F)cc(F)cc32)C1` [Compound 353], the concentration for half-maximal inhibition (IC50) is over 1000 nM.

In the case of `CNS(=O)(=O)NC[C@H]1C[C@H](c2c(-c3ccc(F)cc3)[nH]c3c(F)cc(F)cc32)C1` [Compound 354], the half-maximal inhibitory concentration (IC50) is over 1000 nM.

`O=S(=O)(NC[C@H]1C[C@H](c2c(-c3ccc(F)cc3)[nH]c3c(F)cc(F)cc32)C1)NC1(CO)CCC1` [Compound 355]: the IC50 lay in the range of 250 to 1000 nM.

For `CC(O)CCNS(=O)(=O)NC[C@H]1C[C@H](c2c(-c3ccc(F)cc3)[nH]c3c(F)cc(F)cc32)C1` (some centres unmarked) [Compound 356], the IC50 lay within 250 to 1000 nM.

Turning to `O=S(=O)(NC[C@H]1C[C@H](c2c(-c3ccc(F)cc3)[nH]c3c(F)cc(F)cc32)C1)N[C@@H]1CCC[C@@H]1O` [Compound 357], the IC50 was over 1000 nM.

Take `O=S(=O)(NC[C@H]1C[C@H](c2c(-c3ccc(F)cc3)[nH]c3c(F)cc(F)cc32)C1)NC(CO)C(F)(F)F` (some centres unmarked) [Compound 358]: the half-maximal inhibitory concentration (IC50) was over 1000 nM.

Turning to `O=S(=O)(NCCc1c[nH]cn1)NC[C@H]1C[C@H](c2c(-c3ccc(F)cc3)[nH]c3c(F)cc(F)cc32)C1` [Compound 359], the IC50 is over 1000 nM.

For the molecule `C[C@H](O)[C@H](CO)NS(=O)(=O)NC[C@H]1C[C@H](c2c(-c3ccc(F)cc3)[nH]c3c(F)cc(F)cc32)C1` [Compound 360], the IC50 was over 1000 nM.

With `CN(CC(O)CO)S(=O)(=O)NC[C@H]1C[C@H](c2c(-c3ccc(F)cc3)[nH]c3c(F)cc(F)cc32)C1` (some centres unmarked) [Compound 361], the IC50 was over 1000 nM.

In the case of `C[C@@H](O)[C@@H](CO)NS(=O)(=O)NC[C@H]1C[C@H](c2c(-c3ccc(F)cc3)[nH]c3c(F)cc(F)cc32)C1` [Compound 363], the 50% inhibitory concentration (IC50) is over 1000 nM.

As to `CC(CO)(CO)NS(=O)(=O)NC[C@H]1C[C@H](c2c(-c3ccc(F)cc3)[nH]c3c(F)cc(F)cc32)C1` [Compound 365], the IC50 is over 1000 nM.

For `O=S(=O)(NCCCn1ccnc1)NC[C@H]1C[C@H](c2c(-c3ccc(F)cc3)[nH]c3c(F)cc(F)cc32)C1` [Compound 366], the IC50 was over 1000 nM.

With `Cn1cnc(CNS(=O)(=O)NC[C@H]2C[C@H](c3c(-c4ccc(F)cc4)[nH]c4c(F)cc(F)cc43)C2)c1` [Compound 367], the half-maximal inhibitory concentration (IC50) was over 1000 nM.

Turning to `O=C1CC(CNS(=O)(=O)NC[C@H]2C[C@H](c3c(-c4ccc(F)cc4)[nH]c4c(F)cc(F)cc43)C2)CN1` (some centres unmarked) [Compound 368], the IC50 fell in the range of 250 to 1000 nM.

Turning to `O=S(=O)(NCCc1cn[nH]c1)NC[C@H]1C[C@H](c2c(-c3ccc(F)cc3)[nH]c3c(F)cc(F)cc32)C1` [Compound 369], the IC50 lay in the range of 250 to 1000 nM.

Regarding `CN(C)S(=O)(=O)NC[C@H]1C[C@H](c2c(-c3ccc(F)cc3)[nH]c3c(F)cc(F)cc32)C1` [Compound 370, 3-[3-[(dimethylsulfamoylamino)methyl]cyclobutyl]-5,7-difluoro-2-(4-fluorophenyl)-1H-indole], the half-maximal inhibitory concentration (IC50) was over 1000 nM.

For `CC(=O)NS(=O)(=O)NC[C@H]1C[C@H](c2c(-c3ccc(F)cc3)[nH]c3c(F)cc(F)cc32)C1` [Compound 371], the half-inhibitory concentration (IC50) lay in the range of 250 to 1000 nM.

On to `NS(=O)(=O)NC[C@H]1C[C@H](c2c(-c3ccc(F)cc3)[nH]c3c(F)cc(F)cc32)C1` [Compound 372], for which the IC50 was under 250 nM.
